Measurements as given in US6498145B1, “Use of purified SDG as a hypotensive (vasodilator) agent” (University of Saskatchewan Technologies Incorporated, priority 2000, dated 2002).

Tests used:
Type in all cases: in vivo, rat
[1] = tested on: angiotensin converting enzyme (ACE); assay: Angiotensin I-induced rise in blood pressure before and after SDG; settings: SDG 10 mg/kg intravenously
Procedure: Further experiments were conducted to determine if the SDG-induced fall in the blood pressure is mediated through inhibition of angiotensin converting enzyme (ACE). Angiotensin I is converted to angiotensin II which is vasoconstrictor and raises blood pressure. If SDG lowers blood pressure by inhibiting ACE, then SDG would reduce/prevent the angiotensin I-induced rise in the blood pressure. Experiments were conducted in six normotensive Sprague-Dawley rats. […] However, the effects of angiotensin on arterial pressure of untreated rats remained unaltered. SDG (10 mg/kg) produced a marked fall in the mean arterial pressure.

angiotensin II receptor = assay: Angiotensin II response on arterial pressure before and after SDG; settings: SDG 10 mg/kg intravenously
Procedure: To determine if the SDG-induced fall in the blood pressure is mediated through the blockade of angiotensin II receptor, experiments were carried out in normotensive Sprague-Dawley rats. Effects of angiotensin II (0.2 μg/kg, I.V.) given before and after 15 minutes, 30 minutes and 60 minutes of SDG (10 mg/kg) administered intravenously were investigated on the arterial pressure of six anesthetized Sprague-Dawley rats. […] The response of angiotensin II on the mean arterial pressure in untreated rats remained unaltered.

[2] = tested on: anesthetized normotensive rats; assay: Blood pressure and heart rate of anesthetized normotensive rats, SDG intravenously; settings: for maximum fall in mean B.P.: 15 minutes after administration
Procedure: The effects of SDG in the doses of 10 mg, 15 mg, 20 mg and 30 mg/kg given intravenously were investigated on the blood pressure (B.P.) and heart rate of anesthetized normotensive rats. The number of rats used were 8, 3, 9, and 3 respectively for the doses of SDG (10 mg, 15 mg, 20 mg and 30 mg/kg body wt.). The maximum fall in mean B.P. were approximately 38%, 29%, 46% and 57% with 10 mg, 15 mg, 20 mg and 30 mg/kg dose of SDG respectively at 15 minutes after administration of SDG. After 15 minutes the blood pressure tended to recover but the recovery was not complete. The mean blood pressure at the end of three hours after SDG administration were approximately 25% lower than control values. The changes in the systolic and diastolic pressure were similar to the mean blood pressure with various doses of SDG. […] One would expect a very long duration of hypotensive effect when SDG is given orally.

[3] = tested on: anesthetized spontaneous hypertensive rats; assay: Blood pressure of anesthetized spontaneous hypertensive rats, SDG orally; settings: SHR, 100 mg/kg orally
Procedure: (iii) Effects of SDG (100 mg/kg body wt.) given orally were investigated on the blood pressure of anesthetized spontaneous hypertensive rats for four hours. The blood pressures began falling at 15 minutes of SDG administration and maximum fall occurred after three hours. The decreases were of similar magnitude for systolic, diastolic and mean arterial pressures. The systolic, diastolic and mean arterial pressures respectively were 243 mmHg, 176 mmHg and 198 mmHg before administration of SDG. SDG reduced the blood pressure by approximately 25%.

[4] = tested on: anesthetized spontaneous hypertensive rats (SHR); assay: Blood pressure of anesthetized spontaneous hypertensive rats, SDG intravenously
Procedure: (§1) The effects of SDG on the arterial pressure of anesthetized spontaneous hypertensive rats (SHR) were investigated to determine (a) if it is effective in lowering blood pressure to the same extent as in normotensive Sprague-Dawley rats; (b) if it is effective when given by intraperitoneal route; (c) if the effect is dose-dependent.
(i) Effects of SDG in the doses of 1 mg, 3 mg and 15 mg/kg given intravenously were investigated on the blood pressures of anesthetized spontaneous hypertensive rats (SHR). The maximum fall in the blood pressure occurred between 15 to 30 minutes of SDG administration after which the blood pressure tended to recover. However, the recovery was short lived. The percent decreases in blood pressures at 30 minutes after SDG were 19, 25 and 31 respectively with 1 mg, 3 mg and 15 mg/kg of SDG. At the end of 4 hours of SDG treatment, the percent decreases were 34, 43 and 36 respectively with 1 mg, 3 mg and 15 mg dose. The fall in the blood pressure initially (at 15 minutes) was maximum with high dose of SDG.

[5] = tested on: anesthetized spontaneous hypertensive rats (SHR); assay: Blood pressure of anesthetized spontaneous hypertensive rats, SDG intraperitoneally; settings: for maximum fall in the blood pressure: 30 minutes; for percent decrease in blood pressures: end of four hours
Procedure: as §1
(ii) Effects of SDG in the doses of 5 mg, 10 mg, 50 mg and 200 mg/kg given intraperitoneally were investigated on blood pressure of anesthetized SHR for four hours. The maximum fall in the blood pressure were approximately 7, 37, 50 and 48% respectively with 5 mg, 10 mg, 50 mg and 200 mg of SDG at 30 minutes. At the end of four hours of SDG administration the percent decreases in blood pressures were 31, 42, 39 and 37 respectively with these four doses of SDG.

[6] = tested on: anesthetized normotensive rats; assay: Hypotensive effect of SDG after premedication with blockers/inhibitors in anesthetized normotensive rats
Procedure: FIG. 5 is a graph showing changes in the mean arterial blood pressure (B.P.) with SDG (20 mg/kg, intravenously) in the absence or presence of methylene blue (MB) (0.5 mg/kg); methylene blue was given 15 minutes prior to administration of SDG and results are expressed as mean±S.E. *p<0.05, comparison of values at various times with respect to “0” time.
FIG. 9 is a graph showing effects of SDG in the absence or presence of pyrilamine on the mean arterial blood pressure (B.P.) in anesthetized normotensive rats. Pyrilamine was given 15 minutes before administration of SDG. The results are expressed as mean±S.E. *p<0.05, comparison of values at various times with respect to “0” time.
Heart rate was not affected by methylene blue (FIG. 8).

[7] = normotensive Sprague-Dawley rats

## COc1cc(C[C@@H](CO[C@@H]2O[C@H](CO)[C@@H](O)[C@H](O)[C@H]2O)[C@H](CO[C@@H]2O[C@H](CO)[C@@H](O)[C@H](O)[C@H]2O)Cc2ccc(O)c(OC)c2)ccc1O [SDG, secoisolariciresinol diglucoside]
[1]; [7]
  mean arterial pressure: marked fall
[1]; angiotensin I 0.2 μg/kg intravenously, Sprague-Dawley rats, 60 minutes
  response of angiotensin I on the mean arterial pressure: marked reduction
Angiotensin II receptor; [7]
  mean arterial pressure: reduced the mean arterial pressure
Angiotensin II receptor; angiotensin II 0.2 μg/kg I.V., 15, 30, 60 minutes
  angiotensin II response on arterial pressure: moderately reduced
[2]; 10 mg/kg intravenously, normotensive rats
  maximum fall in mean B.P.: approximately 38%
[2]; 15 mg/kg intravenously, normotensive rats
  maximum fall in mean B.P.: ~29%
[2]; 20 mg/kg intravenously, normotensive rats
  maximum fall in mean B.P.: ~46%
[2]; 30 mg/kg intravenously, normotensive rats
  maximum fall in mean B.P.: ~57%
[2]; any dose (10-30 mg/kg intravenously), normotensive rats
  heart rate: not significantly altered
[2]; end of three hours after SDG administration, 10-30 mg/kg intravenously
  mean blood pressure lower than control values: approximately 25%
[3]
  time at which blood pressures began falling: 15 min
[3]; observed for four hours, systolic, diastolic and mean similar
  reduction of blood pressure: approximately 25%
[4]; 1 mg/kg intravenously, 30 minutes after SDG
  percent decrease in blood pressures: 19%
[4]; 1 mg/kg intravenously, end of 4 hours
  percent decrease in blood pressures: 34%
[4]; 3 mg/kg intravenously, 30 minutes after SDG
  percent decrease in blood pressures: 25%
[4]; 3 mg/kg intravenously, end of 4 hours
  percent decrease in blood pressures: 43%
[4]; 15 mg/kg intravenously, 30 minutes after SDG
  percent decrease in blood pressures: 31%
[4]; 15 mg/kg intravenously, end of 4 hours
  percent decrease in blood pressures: 36%
[4]; 1-15 mg/kg intravenously
  time of maximum fall in the blood pressure: 15 to 30 min
[5]; 5 mg/kg intraperitoneally
  maximum fall in the blood pressure: approximately 7%
  percent decrease in blood pressures: 31%
[5]; 10 mg/kg intraperitoneally
  maximum fall in the blood pressure: ~37%
  percent decrease in blood pressures: 42%
[5]; 50 mg/kg intraperitoneally
  maximum fall in the blood pressure: ~50%
  percent decrease in blood pressures: 39%
[5]; 200 mg/kg intraperitoneally
  maximum fall in the blood pressure: ~48%
  percent decrease in blood pressures: 37%
[6]; NG-monomethyl-L-arginine (inhibitor of nitric oxide synthase)
  hypotensive effect of SDG after premedication with NG-monomethyl-L-arginine: not prevented
[6]; SDG 20 mg/kg intravenously, methylene blue 0.5 mg/kg 15 minutes prior
  hypotensive effect of SDG in presence of methylene blue: completely prevented
[6]; SDG with pyrilamine
  heart rate in presence of pyrilamine: practically unchanged
[6]; atropine (acetylcholine receptor blocker)
  hypotensive effect of SDG after premedication with atropine: not prevented
[6]; indomethacin (inhibitor of cyclooxygenase)
  hypotensive effect of SDG after premedication with indomethacin: not prevented
[6]; pyrilamine (histamine receptor blocker) 15 minutes before SDG
  hypotensive effect of SDG in presence of pyrilamine: partly prevented
